Source: ChEMBL document CHEMBL1125408 (J Med Chem, 1992)
Calls of active or inactive are those of the source.

Legend:
[1] = biological target: T1, Muscarinic acetylcholine receptor M2 (Mus musculus, UniProt Q9ERZ4); experiment: biochemical
T1 sequence (Q9ERZ4 whole entry): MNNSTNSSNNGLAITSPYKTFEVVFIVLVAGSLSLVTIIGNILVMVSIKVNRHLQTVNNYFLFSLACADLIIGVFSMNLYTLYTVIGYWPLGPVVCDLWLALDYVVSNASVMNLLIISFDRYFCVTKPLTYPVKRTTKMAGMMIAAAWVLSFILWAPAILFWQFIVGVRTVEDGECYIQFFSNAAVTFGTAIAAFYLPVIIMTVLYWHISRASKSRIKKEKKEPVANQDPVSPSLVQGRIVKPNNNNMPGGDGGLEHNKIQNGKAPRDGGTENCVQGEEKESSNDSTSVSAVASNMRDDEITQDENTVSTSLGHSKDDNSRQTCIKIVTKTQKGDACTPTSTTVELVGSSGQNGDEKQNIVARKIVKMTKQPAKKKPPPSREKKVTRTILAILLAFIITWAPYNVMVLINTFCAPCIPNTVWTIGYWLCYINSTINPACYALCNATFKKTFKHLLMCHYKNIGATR
Description: Compound was evaluated for the competitive inhibition of [3H]methylscopolamine binding to muscarinic acetylcholine receptor M2 of mouse cerebral cortex

[2] = biological target: T2, Cholinesterase (Homo sapiens, UniProt P06276); experiment: Ratio of IC50 values obtained for BChE/ AChE
[3] = biological target: T2, Cholinesterase
Description: The compound was evaluated for the inhibition human of Butyrylcholinesterase

[4] = biological target: T3, Acetylcholinesterase (Homo sapiens, UniProt P22303)
Description: The compound was evaluated for the inhibition of human Acetylcholinesterase

[5] = species on record: Rattus norvegicus
[6] = biological target: T4, Muscarinic acetylcholine receptor M1 (Mus musculus, UniProt P12657); experiment: biochemical
T4 sequence (P12657 whole entry): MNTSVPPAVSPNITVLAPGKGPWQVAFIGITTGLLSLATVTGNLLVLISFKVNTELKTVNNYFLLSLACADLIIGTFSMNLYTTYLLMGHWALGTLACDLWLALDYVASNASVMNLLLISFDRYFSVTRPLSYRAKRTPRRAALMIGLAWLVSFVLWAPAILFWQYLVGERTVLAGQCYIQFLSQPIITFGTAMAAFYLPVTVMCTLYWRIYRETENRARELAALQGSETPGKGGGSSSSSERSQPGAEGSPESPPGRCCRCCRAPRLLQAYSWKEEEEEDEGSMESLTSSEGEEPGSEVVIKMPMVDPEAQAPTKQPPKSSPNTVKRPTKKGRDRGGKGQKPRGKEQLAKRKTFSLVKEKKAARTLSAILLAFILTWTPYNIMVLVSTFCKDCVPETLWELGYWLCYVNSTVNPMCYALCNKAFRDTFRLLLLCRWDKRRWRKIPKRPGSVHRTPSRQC
Description: Compound was evaluated for the competitive inhibition of [3H]pirenzepine binding to muscarinic acetylcholine receptor M1 of mouse cerebral cortex

[7] = biological target: T5, Muscarinic acetylcholine receptor M2 (Mus musculus) (UniProt Q9ERZ4); experiment: Selectivity was defined as the ratio between M2-IC50/M1-IC50
T5 sequence (whole entry): T1 sequence (Q9ERZ4 whole entry)

[8] = species on record: Rattus norvegicus; experiment: Concentration required to potentiate the contraction of isolated rat ileum produced by 1*10e-7 M ACh by 20 percent; IA=Inactive; assay type: functional
[9] = biological target: T1, Muscarinic acetylcholine receptor M2; experiment: biochemical; remark: listed apart in the source
Description: Compound was evaluated for the competitive inhibition of [3H]methylscopolamine binding to Muscarinic acetylcholine receptor M2 of mouse cerebral cortex

[10] = biological target: T4, Muscarinic acetylcholine receptor M1; experiment: biochemical; remark: listed apart in the source
Description: Compound was evaluated for the competitive inhibition of [3H]pirenzepine binding to Muscarinic acetylcholine receptor M1 of mouse cerebral cortex

[11] = biological target: T2, Cholinesterase; remark: listed apart in the source
Description: The compound was evaluated for the inhibition human of Butyrylcholinesterase I

[12] = biological target: T3, Acetylcholinesterase; remark: listed apart in the source
Description: Inhibition of human acetylcholinesterase-I

[13] = species on record: Rattus norvegicus; experiment: Concentration required to potentiate the contraction of isolated rat ileum produced by 1*10e-7 M ACh by 20 percent; IA= inactive; assay type: functional
[14] = species on record: Mus musculus
[15] = NMS/OXO-M values are calculated from the ratio of the respective apparent Ki values
[16] = species on record: Mus musculus; remark: listed apart in the source
Description: Compound was evaluated for the binding affinity by displacing [3H]methylscopolamine ([3H]-NMS) from mouse cerebral cortex tissue.

T2 sequence (P06276 whole entry): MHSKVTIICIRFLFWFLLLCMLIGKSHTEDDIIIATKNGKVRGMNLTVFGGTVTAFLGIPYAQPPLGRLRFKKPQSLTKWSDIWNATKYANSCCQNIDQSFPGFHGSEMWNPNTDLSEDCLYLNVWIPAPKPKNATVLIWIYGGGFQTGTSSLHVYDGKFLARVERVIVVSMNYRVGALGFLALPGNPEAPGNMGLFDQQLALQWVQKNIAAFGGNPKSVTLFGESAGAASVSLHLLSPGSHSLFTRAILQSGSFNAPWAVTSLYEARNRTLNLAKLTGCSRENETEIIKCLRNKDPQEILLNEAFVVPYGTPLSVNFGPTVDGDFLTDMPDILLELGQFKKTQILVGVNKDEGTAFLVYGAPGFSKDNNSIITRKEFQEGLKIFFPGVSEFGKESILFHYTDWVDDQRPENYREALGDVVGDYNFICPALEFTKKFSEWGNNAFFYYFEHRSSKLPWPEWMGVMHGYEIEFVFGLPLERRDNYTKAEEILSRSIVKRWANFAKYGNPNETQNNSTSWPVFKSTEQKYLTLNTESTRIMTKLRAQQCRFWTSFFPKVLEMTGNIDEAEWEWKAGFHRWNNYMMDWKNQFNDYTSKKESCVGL
T3 sequence (P22303 whole entry): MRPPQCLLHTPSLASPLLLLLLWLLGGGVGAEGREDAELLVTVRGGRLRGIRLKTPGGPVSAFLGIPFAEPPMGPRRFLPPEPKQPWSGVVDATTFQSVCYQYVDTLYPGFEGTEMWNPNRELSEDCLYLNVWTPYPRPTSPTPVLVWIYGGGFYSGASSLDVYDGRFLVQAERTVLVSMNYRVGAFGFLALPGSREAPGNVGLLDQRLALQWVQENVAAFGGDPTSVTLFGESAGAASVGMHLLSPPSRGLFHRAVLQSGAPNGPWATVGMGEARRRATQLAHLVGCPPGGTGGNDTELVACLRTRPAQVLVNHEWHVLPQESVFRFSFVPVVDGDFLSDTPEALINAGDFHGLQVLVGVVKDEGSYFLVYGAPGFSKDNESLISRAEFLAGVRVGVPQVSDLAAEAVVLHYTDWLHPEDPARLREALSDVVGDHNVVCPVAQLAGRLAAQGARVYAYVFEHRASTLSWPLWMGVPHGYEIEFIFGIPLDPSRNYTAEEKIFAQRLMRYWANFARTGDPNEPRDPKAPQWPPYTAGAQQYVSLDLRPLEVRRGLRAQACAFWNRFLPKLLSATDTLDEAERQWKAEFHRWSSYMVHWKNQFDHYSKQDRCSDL

CN(C)Cc1ccc(CSCCN/C=C(/NCCSCc2ccc(CN(C)C)o2)[N+](=O)[O-])o1
IC50 [1]: 500 nM
Ratio [2]: 18
IC50 [3]: 1300 nM
IC50 [4]: 74 nM
Ileal activity [5]: <0.1 µM
IC50 [6]: 900 nM
Ratio [7]: 0.55

CN(C)Cc1ccc(CSCCCCCCCSCc2ccc(CN(C)C)o2)o1
IC50 [1]: 710 nM
Ratio [2]: 3.1
IC50 [3]: 1900 nM
IC50 [4]: 610 nM
Ileal activity [8]: inactive
IC50 [6]: 410 nM
Ratio [7]: 1.7

CN(C)Cc1ccc(CSCCCCCSCc2ccc(CN(C)C)o2)o1
IC50 [9]: 520 nM
IC50 [10]: 810 nM
IC50 [11]: 3600 nM
Ileal activity [5]: <0.1 µM
IC50 [12]: 900 nM

CN(C)Cc1ccc(CSCCSCc2ccc(CN(C)C)o2)o1
IC50 [9]: 1400 nM
IC50 [10]: 1100 nM
IC50 [11]: 4300 nM
Ileal activity [5]: <0.1 µM
IC50 [12]: 500 nM

CN(C)Cc1ccc(CSCCCCCCCCCSCc2ccc(CN(C)C)o2)o1
IC50 [1]: 400 nM
Ratio [2]: 2.2
IC50 [3]: 1000 nM
IC50 [4]: 460 nM
Ileal activity [5]: <0.1 µM
IC50 [6]: 560 nM
Ratio [7]: 0.71

CN(C)Cc1ccc(CSCCCCCCCCCCSCc2ccc(CN(C)C)o2)o1
IC50 [4]: 1300 nM

CN(C)Cc1ccc(CSCc2cccc(CSCc3ccc(CN(C)C)o3)c2)o1
IC50 [12]: 1500 nM

CN(C)Cc1ccc(CSCCCCCCSCc2ccc(CN(C)C)o2)o1
IC50 [9]: 580 nM
IC50 [10]: 540 nM
IC50 [11]: 2900 nM
Ileal activity [13]: inactive
IC50 [12]: 740 nM

CN(C)Cc1ccc(CSCCCCSCc2ccc(CN(C)C)o2)o1
IC50 [9]: 2200 nM
IC50 [10]: 630 nM
Ki [14]: 1200 nM
IC50 [11]: 3100 nM
Ratio [15]: 17
Ileal activity [5]: <1 µM
IC50 [12]: 210 nM
Ki [16]: 20000 nM

CN(C)Cc1ccc(CSCCNC(=NC#N)NCCSCc2ccc(CN(C)C)o2)o1
IC50 [9]: 470 nM
IC50 [10]: 660 nM
IC50 [11]: 2400 nM
Ileal activity [5]: <0.01 µM
IC50 [12]: 290 nM

CN(C)Cc1ccc(CSCCCSCc2ccc(CN(C)C)o2)o1
IC50 [9]: 1500 nM
IC50 [10]: 1100 nM
IC50 [11]: 4100 nM
Ileal activity [5]: <0.1 µM
IC50 [12]: 330 nM

CNC(=O)Oc1ccc2c(c1)[C@]1(C)CCN(C)[C@@H]1N2C [PHYSOSTIGMINE]
IC50 [1]: 160000 nM
Ileal activity [5]: <0.005 µM
IC50 [6]: 37000 nM

CN(C)Cc1ccc(CSCc2ccc(CSCc3ccc(CN(C)C)o3)cc2)o1
IC50 [9]: 550 nM
IC50 [10]: 540 nM
IC50 [11]: 2700 nM
Ileal activity [13]: inactive
IC50 [12]: 260 nM

CN(C)Cc1ccc(CSCCNC(=O)NCCSCc2ccc(CN(C)C)o2)o1
IC50 [12]: 48000 nM

CN(C)Cc1ccc(CSCCCCCCCCSCc2ccc(CN(C)C)o2)o1
IC50 [1]: 540 nM
Ratio [2]: 4
IC50 [3]: 1900 nM
IC50 [4]: 470 nM
Ileal activity [5]: <0.1 µM
IC50 [6]: 310 nM
Ratio [7]: 1.8

CN(C)Cc1ccc(CSCc2ccccc2CSCc2ccc(CN(C)C)o2)o1
IC50 [12]: 9000 nM

CN(C)Cc1ccc(CSCC/N=C/NCCSCc2ccc(CN(C)C)o2)o1
IC50 [12]: 3000 nM

CN(C)Cc1ccc(CSCc2ccc(CN(C)C)o2)o1
IC50 [12]: 44000 nM

CN(C)Cc1ccc(CSCc2ccc(-c3ccc(CSCc4ccc(CN(C)C)o4)cc3)cc2)o1
IC50 [9]: 1600 nM
IC50 [10]: 680 nM
IC50 [11]: 1300 nM
Ileal activity [5]: <0.01 µM
IC50 [12]: 180 nM

CN(C)Cc1ccc(CSCCNc2cc(NCCSCc3ccc(CN(C)C)o3)c([N+](=O)[O-])cc2[N+](=O)[O-])o1
IC50 [1]: 590 nM
Ratio [2]: 0.89
IC50 [3]: 25 nM
IC50 [4]: 28 nM
Ileal activity [5]: <0.05 µM
IC50 [6]: 490 nM
